Test results taken from article PMC6874179, “Development of Macrocycle Kinase Inhibitors for ALK2 Using Fibrodysplasia Ossificans Progressiva‐Derived Endothelial Cells” (JBMR Plus, 2019).

Assays:
Experiment in all cases: Proqinase Kinase profiling
Assay type in all cases: biochemical
Details in all cases: read-out: % inhibition at 100nM
ACVRL1 = target: T1, ACVRL1 (Homo sapiens, UniProt P37023)
T1 construct: purchased DiscoverX

SGK1 = target: T2, SGK1 (Homo sapiens, UniProt O00141)
T2 construct: purchased DiscoverX

MAP4K5 = target: T3, MAP4K5 (Homo sapiens, UniProt Q9Y4K4)
T3 construct: purchased DiscoverX

RET_E762Q = target: T4, RET_E762Q (Homo sapiens, UniProt P07949, E762Q)
T4 construct: purchased DiscoverX
T4 sequence (P07949 29-1114 E762Q): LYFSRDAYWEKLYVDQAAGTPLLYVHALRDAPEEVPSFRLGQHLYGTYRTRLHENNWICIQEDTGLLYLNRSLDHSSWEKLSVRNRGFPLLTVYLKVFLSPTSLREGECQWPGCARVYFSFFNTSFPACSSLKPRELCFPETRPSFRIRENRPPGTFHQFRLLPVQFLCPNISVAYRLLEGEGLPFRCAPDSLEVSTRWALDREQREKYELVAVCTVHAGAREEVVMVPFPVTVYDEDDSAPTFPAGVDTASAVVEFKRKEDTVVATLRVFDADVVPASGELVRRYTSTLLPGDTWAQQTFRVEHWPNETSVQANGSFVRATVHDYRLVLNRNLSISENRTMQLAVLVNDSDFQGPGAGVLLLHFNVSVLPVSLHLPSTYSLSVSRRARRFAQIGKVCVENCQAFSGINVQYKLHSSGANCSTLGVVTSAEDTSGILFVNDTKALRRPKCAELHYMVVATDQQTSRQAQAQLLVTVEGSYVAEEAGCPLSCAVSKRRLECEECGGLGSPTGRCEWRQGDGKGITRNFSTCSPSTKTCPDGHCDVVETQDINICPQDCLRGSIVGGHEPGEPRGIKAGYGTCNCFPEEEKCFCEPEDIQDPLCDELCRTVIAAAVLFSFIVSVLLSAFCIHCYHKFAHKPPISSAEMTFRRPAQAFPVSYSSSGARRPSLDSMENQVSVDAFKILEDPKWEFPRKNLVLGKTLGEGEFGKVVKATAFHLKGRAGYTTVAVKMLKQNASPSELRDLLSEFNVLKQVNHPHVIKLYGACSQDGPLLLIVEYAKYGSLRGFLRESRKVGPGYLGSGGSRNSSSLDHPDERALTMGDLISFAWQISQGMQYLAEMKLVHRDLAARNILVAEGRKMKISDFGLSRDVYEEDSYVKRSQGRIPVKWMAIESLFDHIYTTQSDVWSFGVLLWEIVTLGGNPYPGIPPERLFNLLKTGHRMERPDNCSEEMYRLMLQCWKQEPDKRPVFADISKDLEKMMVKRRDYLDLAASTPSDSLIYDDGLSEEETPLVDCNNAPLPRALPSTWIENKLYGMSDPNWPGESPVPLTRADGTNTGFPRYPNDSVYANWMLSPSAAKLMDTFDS

CSNK1G1 = target: T5, CSNK1G1 (Homo sapiens, UniProt Q9HCP0)
T5 construct: purchased DiscoverX
T5 sequence (Q9HCP0 whole entry): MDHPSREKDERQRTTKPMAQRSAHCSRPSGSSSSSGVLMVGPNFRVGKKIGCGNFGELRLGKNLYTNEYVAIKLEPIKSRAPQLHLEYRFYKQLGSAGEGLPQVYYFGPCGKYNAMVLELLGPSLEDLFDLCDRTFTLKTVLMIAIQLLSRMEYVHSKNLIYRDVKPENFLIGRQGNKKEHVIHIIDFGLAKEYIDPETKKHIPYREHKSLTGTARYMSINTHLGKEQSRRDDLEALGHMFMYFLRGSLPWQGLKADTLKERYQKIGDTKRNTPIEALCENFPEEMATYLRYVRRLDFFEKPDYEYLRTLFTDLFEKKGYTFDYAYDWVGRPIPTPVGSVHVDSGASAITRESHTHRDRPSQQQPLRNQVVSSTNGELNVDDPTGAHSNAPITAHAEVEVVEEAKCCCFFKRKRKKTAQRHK

GRK4 = target: T6, GRK4 (Homo sapiens, UniProt P32298)
T6 construct: purchased DiscoverX
T6 sequence (P32298 whole entry): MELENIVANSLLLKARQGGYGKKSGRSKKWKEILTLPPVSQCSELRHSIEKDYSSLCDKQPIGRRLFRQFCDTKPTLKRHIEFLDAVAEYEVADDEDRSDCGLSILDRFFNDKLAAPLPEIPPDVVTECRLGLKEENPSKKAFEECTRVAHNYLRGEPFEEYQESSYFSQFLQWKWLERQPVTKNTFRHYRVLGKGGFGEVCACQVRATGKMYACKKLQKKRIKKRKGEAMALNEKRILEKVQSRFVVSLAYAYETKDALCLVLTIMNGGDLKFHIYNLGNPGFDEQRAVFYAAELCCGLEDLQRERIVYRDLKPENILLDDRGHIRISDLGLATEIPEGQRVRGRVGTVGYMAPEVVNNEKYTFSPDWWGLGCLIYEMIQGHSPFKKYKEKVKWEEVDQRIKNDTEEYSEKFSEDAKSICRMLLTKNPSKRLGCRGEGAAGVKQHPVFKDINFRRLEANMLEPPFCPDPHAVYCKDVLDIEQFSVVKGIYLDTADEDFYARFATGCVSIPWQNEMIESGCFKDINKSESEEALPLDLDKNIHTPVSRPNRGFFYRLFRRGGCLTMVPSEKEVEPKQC

AXL = target: T7, AXL (Homo sapiens, UniProt P30530)
T7 construct: purchased DiscoverX

PAK4 = target: T8, PAK4 (Homo sapiens, UniProt O96013)
T8 construct: purchased DiscoverX

PTK2B = target: T9, PTK2B (Homo sapiens, UniProt Q14289)
T9 construct: purchased DiscoverX

ITK = target: T10, ITK (Homo sapiens, UniProt Q08881)
T10 construct: purchased DiscoverX

GRK5 = target: T11, GRK5 (Homo sapiens, UniProt P34947)
T11 construct: purchased DiscoverX
T11 sequence (P34947 whole entry): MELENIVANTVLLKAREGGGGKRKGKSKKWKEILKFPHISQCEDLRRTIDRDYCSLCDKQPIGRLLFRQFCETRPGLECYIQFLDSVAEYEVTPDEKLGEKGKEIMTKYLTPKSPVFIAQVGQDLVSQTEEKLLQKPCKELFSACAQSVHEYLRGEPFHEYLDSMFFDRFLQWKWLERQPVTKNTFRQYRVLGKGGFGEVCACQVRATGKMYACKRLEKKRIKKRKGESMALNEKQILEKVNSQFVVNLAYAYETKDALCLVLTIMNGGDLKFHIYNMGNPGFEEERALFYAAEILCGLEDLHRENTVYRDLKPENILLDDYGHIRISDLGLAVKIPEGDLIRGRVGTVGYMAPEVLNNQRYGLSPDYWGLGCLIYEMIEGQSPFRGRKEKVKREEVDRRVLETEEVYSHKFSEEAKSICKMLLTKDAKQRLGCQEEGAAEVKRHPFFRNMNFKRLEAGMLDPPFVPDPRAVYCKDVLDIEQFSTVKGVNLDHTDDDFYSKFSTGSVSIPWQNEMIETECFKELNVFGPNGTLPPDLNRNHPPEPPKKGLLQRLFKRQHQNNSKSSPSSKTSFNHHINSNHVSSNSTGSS

PRKCD = target: T12, PRKCD (Homo sapiens, UniProt Q05655)
T12 construct: purchased DiscoverX

ROCK1 = target: T13, ROCK1 (Homo sapiens, UniProt Q13464)
T13 construct: purchased DiscoverX

TGFBR2 = target: T14, TGFBR2 (Homo sapiens, UniProt P37173)
T14 construct: purchased DiscoverX

FGR = target: T15, FGR (Homo sapiens, UniProt P09769)
T15 construct: purchased DiscoverX

HCK = target: T16, HCK (Homo sapiens, UniProt P08631)
T16 construct: purchased DiscoverX

TBK1 = target: T17, TBK1 (Homo sapiens, UniProt Q9UHD2)
T17 construct: purchased DiscoverX

PAK1 = target: T18, PAK1 (Homo sapiens, UniProt Q13153)
T18 construct: purchased DiscoverX

CSF1R = target: T19, CSF1R (Homo sapiens, UniProt P07333)
T19 construct: purchased DiscoverX

EPHA1 = target: T20, EPHA1 (Homo sapiens, UniProt P21709)
T20 construct: purchased DiscoverX

MAPKAPK2 = target: T21, MAPKAPK2 (Homo sapiens, UniProt P49137)
T21 construct: purchased DiscoverX
T21 sequence (P49137 whole entry): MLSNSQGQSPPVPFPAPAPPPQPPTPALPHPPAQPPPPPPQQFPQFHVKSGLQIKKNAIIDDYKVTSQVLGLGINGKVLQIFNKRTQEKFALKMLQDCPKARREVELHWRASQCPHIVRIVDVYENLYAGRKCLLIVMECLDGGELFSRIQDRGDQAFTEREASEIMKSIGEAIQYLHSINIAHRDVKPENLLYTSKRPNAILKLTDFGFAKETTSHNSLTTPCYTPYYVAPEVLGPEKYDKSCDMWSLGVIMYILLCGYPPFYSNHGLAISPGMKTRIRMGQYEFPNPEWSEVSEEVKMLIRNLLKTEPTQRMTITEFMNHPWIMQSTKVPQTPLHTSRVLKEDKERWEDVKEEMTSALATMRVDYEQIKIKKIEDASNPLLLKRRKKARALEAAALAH

CDK16_cyclinY = target: T22, CDK16_cyclinY (Homo sapiens, UniProt Q00536)
T22 construct: purchased DiscoverX

ADRBK2 = target: T23, ADRBK2 (Homo sapiens, UniProt P35626)
T23 construct: purchased DiscoverX

AKT1 = target: T24, AKT1 (Homo sapiens, UniProt P31749)
T24 construct: purchased DiscoverX

MET_F1200I = target: T25, MET_F1200I (Homo sapiens, UniProt P08581, F1200I)
T25 construct: purchased DiscoverX

MET = target: T26, MET (Homo sapiens, UniProt P08581)
T26 construct: purchased DiscoverX

MAPK11 = target: T27, MAPK11 (Homo sapiens, UniProt Q15759)
T27 construct: purchased DiscoverX

DYRK3 = target: T28, DYRK3 (Homo sapiens, UniProt O43781)
T28 construct: purchased DiscoverX

FGFR2 = target: T29, FGFR2 (Homo sapiens, UniProt P21802)
T29 construct: purchased DiscoverX

CDK7_cyclinH_MAT1 = target: T30, CDK7_cyclinH_MAT1 (Homo sapiens, UniProt P50613)
T30 construct: purchased DiscoverX
T30 sequence (P50613 whole entry): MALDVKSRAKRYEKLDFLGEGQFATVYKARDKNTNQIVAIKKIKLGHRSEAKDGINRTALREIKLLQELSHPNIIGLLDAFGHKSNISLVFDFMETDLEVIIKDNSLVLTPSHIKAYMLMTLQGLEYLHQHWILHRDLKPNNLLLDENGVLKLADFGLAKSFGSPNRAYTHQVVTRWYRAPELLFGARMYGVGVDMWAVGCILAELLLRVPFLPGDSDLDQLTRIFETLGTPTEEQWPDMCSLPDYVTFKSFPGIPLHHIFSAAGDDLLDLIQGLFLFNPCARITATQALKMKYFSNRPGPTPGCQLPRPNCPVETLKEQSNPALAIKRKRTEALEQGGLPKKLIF
T30 sequence (P51946 whole entry partner): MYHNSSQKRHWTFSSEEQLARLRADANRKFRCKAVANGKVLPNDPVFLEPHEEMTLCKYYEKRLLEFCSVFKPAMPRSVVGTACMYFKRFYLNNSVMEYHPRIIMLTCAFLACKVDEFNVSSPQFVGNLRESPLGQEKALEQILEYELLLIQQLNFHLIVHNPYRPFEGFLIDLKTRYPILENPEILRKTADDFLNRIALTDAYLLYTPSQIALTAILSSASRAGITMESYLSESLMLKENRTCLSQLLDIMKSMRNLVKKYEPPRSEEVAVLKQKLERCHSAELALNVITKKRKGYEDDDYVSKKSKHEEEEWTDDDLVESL
T30 sequence (P51948 whole entry partner): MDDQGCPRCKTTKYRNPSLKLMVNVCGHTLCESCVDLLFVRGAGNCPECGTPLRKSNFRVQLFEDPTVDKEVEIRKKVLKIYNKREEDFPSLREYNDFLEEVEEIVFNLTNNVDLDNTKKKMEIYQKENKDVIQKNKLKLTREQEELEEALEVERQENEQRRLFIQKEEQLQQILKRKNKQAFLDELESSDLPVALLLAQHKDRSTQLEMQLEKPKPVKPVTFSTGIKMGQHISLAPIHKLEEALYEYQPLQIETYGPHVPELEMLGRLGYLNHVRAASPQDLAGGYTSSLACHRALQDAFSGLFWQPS

CDK9_cyclinK = target: T31, CDK9_cyclinK (Homo sapiens, UniProt P50750)
T31 construct: purchased DiscoverX

RPS6KA4 = target: T32, RPS6KA4 (Homo sapiens, UniProt O75676)
T32 construct: purchased DiscoverX

MARK2 = target: T33, MARK2 (Homo sapiens, UniProt Q7KZI7)
T33 construct: purchased DiscoverX

EGFR_L747-E749del_A750P = target: T34, EGFR_L747-E749del_A750P (Homo sapiens, UniProt P00533, A750P/DEL747-749)
T34 construct: purchased DiscoverX

KIT_V654A = target: T35, KIT_V654A (Homo sapiens, UniProt P10721, V654A)
T35 construct: purchased DiscoverX
T35 sequence (P10721 26-976 V654A): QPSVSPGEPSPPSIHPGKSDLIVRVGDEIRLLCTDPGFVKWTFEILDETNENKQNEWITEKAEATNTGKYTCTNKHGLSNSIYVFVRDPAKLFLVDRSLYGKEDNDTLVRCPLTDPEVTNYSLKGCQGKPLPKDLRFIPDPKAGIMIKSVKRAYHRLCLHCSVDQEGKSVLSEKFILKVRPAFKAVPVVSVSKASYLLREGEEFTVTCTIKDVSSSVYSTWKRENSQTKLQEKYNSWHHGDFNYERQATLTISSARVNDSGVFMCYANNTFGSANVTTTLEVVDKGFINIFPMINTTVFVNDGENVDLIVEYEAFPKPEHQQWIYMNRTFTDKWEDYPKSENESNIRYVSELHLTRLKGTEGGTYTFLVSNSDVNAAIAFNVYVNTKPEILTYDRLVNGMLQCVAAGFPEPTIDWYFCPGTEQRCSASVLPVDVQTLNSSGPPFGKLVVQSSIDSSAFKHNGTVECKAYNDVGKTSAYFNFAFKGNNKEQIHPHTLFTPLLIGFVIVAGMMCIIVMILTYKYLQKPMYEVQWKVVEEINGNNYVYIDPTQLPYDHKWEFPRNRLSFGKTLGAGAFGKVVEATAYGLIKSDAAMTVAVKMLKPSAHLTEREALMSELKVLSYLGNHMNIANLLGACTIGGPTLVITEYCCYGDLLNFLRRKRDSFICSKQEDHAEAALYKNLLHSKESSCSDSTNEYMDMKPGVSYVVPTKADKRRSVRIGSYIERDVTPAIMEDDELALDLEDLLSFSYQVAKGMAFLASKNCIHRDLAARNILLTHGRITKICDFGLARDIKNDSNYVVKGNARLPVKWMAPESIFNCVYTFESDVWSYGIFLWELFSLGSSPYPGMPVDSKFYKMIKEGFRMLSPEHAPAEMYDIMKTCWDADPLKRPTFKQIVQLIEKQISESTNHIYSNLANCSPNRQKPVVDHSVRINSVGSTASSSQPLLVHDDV

DAPK2 = target: T36, DAPK2 (Homo sapiens, UniProt Q9UIK4)
T36 construct: purchased DiscoverX

MET_D1228H = target: T37, MET_D1228H (Homo sapiens, UniProt P08581, D1228H)
T37 construct: purchased DiscoverX

PRKAA1 = target: T38, PRKAA1 (Homo sapiens, UniProt Q13131)
T38 construct: purchased DiscoverX

KIT_V559D_V654A = target: T39, KIT_V559D_V654A (Homo sapiens, UniProt P10721, V559D/V654A)
T39 construct: purchased DiscoverX

ZAP70 = target: T40, ZAP70 (Homo sapiens, UniProt P43403)
T40 construct: purchased DiscoverX

MST4 = target: T41, MST4 (Homo sapiens, UniProt Q9P289)
T41 construct: purchased DiscoverX

EGFR_L858R = target: T42, EGFR_L858R (Homo sapiens, UniProt P00533, L858R)
T42 construct: purchased DiscoverX

ERBB2 = target: T43, ERBB2 (Homo sapiens, UniProt P04626)
T43 construct: purchased DiscoverX

`Clc1cc2cc(c1)-c1cnn3ccc(nc13)NCCOCCO2` [OD36] gave an inhibition at 0.1 µM (ACVRL1) of 88%, an inhibition at 0.1 µM (SGK1) of 16% and an inhibition at 0.1 µM (MAP4K5) of 18%. The inhibition at 0.1 µM (RET_E762Q) was 33%, the inhibition at 0.1 µM (CSNK1G1) was 1% and the inhibition at 0.1 µM (GRK4) was 16%. For the same compound, the inhibition at 0.1 µM (AXL) was 10%, the inhibition at 0.1 µM (PAK4) was -3% and the inhibition at 0.1 µM (PTK2B) was -2%. It also gave an inhibition at 0.1 µM (ITK) of -6%, an inhibition at 0.1 µM (GRK5) of 1% and an inhibition at 0.1 µM (PRKCD) of 4%. The inhibition at 0.1 µM (ROCK1) was 1%, the inhibition at 0.1 µM (TGFBR2) was 68% and the inhibition at 0.1 µM (FGR) was 26%. It also gave an inhibition at 0.1 µM (HCK) of 29%, an inhibition at 0.1 µM (TBK1) of 11% and an inhibition at 0.1 µM (PAK1) of 18%. For the same compound, the inhibition at 0.1 µM (CSF1R) was 16%, the inhibition at 0.1 µM (EPHA1) was 6% and the inhibition at 0.1 µM (MAPKAPK2) was -9%. The inhibition at 0.1 µM (CDK16_cyclinY) was 12%, the inhibition at 0.1 µM (ADRBK2) was 0% and the inhibition at 0.1 µM (AKT1) was 4%. The inhibition at 0.1 µM (MET_F1200I) was 4%, the inhibition at 0.1 µM (MET) was 3% and the inhibition at 0.1 µM (MAPK11) was 11%. It also gave an inhibition at 0.1 µM (DYRK3) of 0%, an inhibition at 0.1 µM (FGFR2) of 8% and an inhibition at 0.1 µM (CDK7_cyclinH_MAT1) of 0%. The inhibition at 0.1 µM (CDK9_cyclinK) was 16%, the inhibition at 0.1 µM (RPS6KA4) was 19% and the inhibition at 0.1 µM (MARK2) was 11%. For the same compound, the inhibition at 0.1 µM (EGFR_L747-E749del_A750P) was 2%, the inhibition at 0.1 µM (KIT_V654A) was 5% and the inhibition at 0.1 µM (DAPK2) was 17%. For the same compound, the inhibition at 0.1 µM (MET_D1228H) was 8%, the inhibition at 0.1 µM (PRKAA1) was 21% and the inhibition at 0.1 µM (KIT_V559D_V654A) was -2%. The inhibition at 0.1 µM (ZAP70) was -3%, the inhibition at 0.1 µM (MST4) was 3% and the inhibition at 0.1 µM (EGFR_L858R) was 11%. It also gave an inhibition at 0.1 µM (ERBB2) of 0%.

`Cc1cc2cc(c1)-c1cnn3ccc(nc13)NCCNC(=O)CCN(C)C2` [OD52] showed an inhibition at 0.1 µM (ACVRL1) of 89%, an inhibition at 0.1 µM (SGK1) of 22% and an inhibition at 0.1 µM (MAP4K5) of 19%. The inhibition at 0.1 µM (RET_E762Q) was 19%, the inhibition at 0.1 µM (CSNK1G1) was 16% and the inhibition at 0.1 µM (GRK4) was 16%. For the same compound, the inhibition at 0.1 µM (AXL) was 10%, the inhibition at 0.1 µM (PAK4) was 7% and the inhibition at 0.1 µM (PTK2B) was 6%. For the same compound, the inhibition at 0.1 µM (ITK) was 3%, the inhibition at 0.1 µM (GRK5) was 2% and the inhibition at 0.1 µM (PRKCD) was 2%. The inhibition at 0.1 µM (ROCK1) was 1%, the inhibition at 0.1 µM (TGFBR2) was 0% and the inhibition at 0.1 µM (FGR) was 0%. For the same compound, the inhibition at 0.1 µM (HCK) was 0%, the inhibition at 0.1 µM (TBK1) was -1% and the inhibition at 0.1 µM (PAK1) was -1%. It also gave an inhibition at 0.1 µM (CSF1R) of -1%, an inhibition at 0.1 µM (EPHA1) of -1% and an inhibition at 0.1 µM (MAPKAPK2) of -1%. It also gave an inhibition at 0.1 µM (CDK16_cyclinY) of -2%, an inhibition at 0.1 µM (ADRBK2) of -3% and an inhibition at 0.1 µM (AKT1) of -4%. It also gave an inhibition at 0.1 µM (MET_F1200I) of -4%, an inhibition at 0.1 µM (MET) of -5% and an inhibition at 0.1 µM (MAPK11) of -5%. The inhibition at 0.1 µM (DYRK3) was -5%, the inhibition at 0.1 µM (FGFR2) was -6% and the inhibition at 0.1 µM (CDK7_cyclinH_MAT1) was -6%. For the same compound, the inhibition at 0.1 µM (CDK9_cyclinK) was -7%, the inhibition at 0.1 µM (RPS6KA4) was -8% and the inhibition at 0.1 µM (MARK2) was -9%. For the same compound, the inhibition at 0.1 µM (EGFR_L747-E749del_A750P) was -9%, the inhibition at 0.1 µM (KIT_V654A) was -9% and the inhibition at 0.1 µM (DAPK2) was -10%. It also gave an inhibition at 0.1 µM (MET_D1228H) of -11%, an inhibition at 0.1 µM (PRKAA1) of -11% and an inhibition at 0.1 µM (KIT_V559D_V654A) of -12%. It also gave an inhibition at 0.1 µM (ZAP70) of -13%, an inhibition at 0.1 µM (MST4) of -17% and an inhibition at 0.1 µM (EGFR_L858R) of -23%. The inhibition at 0.1 µM (ERBB2) was -44%.
